Measurements as given in US20250002524A1, “CAP ANALOGS HAVING AN ACYCLIC LINKER TO THE GUANINE DERIVATIVE NUCLEOBASE” (CureVac SE, priority 2021, published 2025).
Read-outs that look alike come from different tables or passages of the source.

Molecular target: T1, T7 RNA polymerase (Escherichia phage T7, UniProt P00573)
T1 construct: purchased Thermo Fisher Scientific
Format: biochemical
Excerpt: A DNA sequence was introduced into a modified pUC19 derived vector backbone to comprise a 5′-UTR with a ribozyme cleavage site (the HSD17B4 5′ UTR), a 3′-UTR, a histone-stem-loop structure and a stretch of adenine nucleotides (A100), at the 3′-terminal end. The obtained plasmid DNA was transformed and propagated in bacteria using common protocols and plasmid DNA was extracted, purified, and enzymatically linearized using a restriction enzyme. The obtained linearized plasmid DNA was used for RNA in vitro transcription as outlined next to obtain the mRNA with the sequence shown in SEQ ID NO: 1.
Linearized plasmid DNA template (50 μg/ml) was transcribed at 37° C. for 3-5 hours in 80 mM HEPES/KOH, pH 7.5, 24 mM MgCl2, 2 mM spermidine, 40 mM DTT, 5 U/ml pyrophosphatase (Thermo Fisher Scientific), 200 U/ml RiboLock RNase inhibitor (Thermo Fisher Scientific), 5000 U/ml T7 RNA polymerase (Thermo Fisher Scientific).
The non-modified and modified nucleotide mixture was sequence-optimized (herein referred to as sequence-optimized IVT-mix) preferably in accordance with a procedure as described in WO2015/188933. Example 1. In short, the sequence-optimized IVT-mix comprised the four ribonucleoside triphosphates (NTPs) GTP, ATP, CTP and (modified) UTP in a sequence optimized ratio, wherein the fraction of each of the four ribonucleoside triphosphates in the sequence-optimized IVT-mix corresponded to the fraction of the respective nucleotide in the mRNA molecule to be synthetized, a buffer, a DNA template, and an RNA polymerase. Accordingly, for mRNAs i) and ii) as set out above, the concentrations of the nucleotides were 0.42 mM ATP, 0.57 mM CTP, 0.28 mM UTP, and 0.5 mM GTP (all Thermo Fisher Scientific).
Following RNA in vitro transcription, linear DNA templates were removed by Pulmozyme (Ratiopharm) (2500 U/ml, 3.2 mM CaCl2, 30 min at 37° C.). The obtained mRNAs i) and ii) as well as the mRNAs used in example 3, Table Ex-6; example 4, Table Ex-7; and example 5, FIG. 5 were purified using RP-HPLC (PureMessenger®; according to WO2008/077592). The obtained mRNAs used in example 3, Table Ex-8; example 4, Table Ex-9; and example 5, FIG. 6, were purified using Monarch RNA cleanup kit or Qiagen RNeasy mini kit according to the protocol of the manufacturer and used for dsRNA determination, capping analysis and in vitro expression experiments (example 5).
The capping efficacy can be analyzed by an HPLC assay of a 5′ fragment of mRNAs obtained according to the protocol of example 2. Thus, the peaks obtained in such an HPLC assay are indicative of i) correctly capped mRNA, ii) capped mRNA lacking a single nucleotide G (which is a typical side product if T7 RNA-polymerase is used), iii) uncapped mRNA and iv) further products of unknown structure. 5′ fragments for this kind of analysis are typically 15 to 20 nucleotides in length.
In order to provide fragments of a length of 18 nucleotides (assuming that the Cap-nucleotide is present, the fragment is 18 nucleotides long; for uncapped mRNAs, the fragment is accordingly 17 nucleotides long) for HPLC analysis, the mRNAs i) and ii) obtained in example 2 were first cleaved at the above-mentioned 5′ ribozyme cleavage site using a ribozyme designed to cleave at the relevant position. The ribozyme reaction contained 150 μM of the respective mRNA, 150 μM of the ribozyme, 50 mM NaCl and 0.625 mM EDTA in a total reaction volume of 120 μL. For the annealing reaction, the mixture was incubated in a PCR cycler for 3 min at 95° C., followed by a cool down ramp of 0.1° C. per second to a final temperature of 25° C., with a final incubation of 10 min at 25° C. After addition of 30 μL of a 200 mM MgCl2 solution buffered with 250 mM TRIS/HCl (pH 7.5), the reaction mix was incubated at 25° C. for 1 h. The reaction was stopped by addition of 24 μL of a 250 mM EDTA solution. RNA-only and Ribozyme-only controls were prepared per RNA and ribozyme, respectively.

[1] = Table Ex-8, mRNA capped with 15.23 mM cap0 analog, N1-Methyl-pseudouridine, purified with Monarch RNA cleanup kit or Qiagen RNeasy mini kit
[2] = Table Ex-6, mRNA capped with named cap analog (2.0 mM cap, 0.5 mM GTP), RP-HPLC purified mRNA

T1 sequence (P00573 whole entry): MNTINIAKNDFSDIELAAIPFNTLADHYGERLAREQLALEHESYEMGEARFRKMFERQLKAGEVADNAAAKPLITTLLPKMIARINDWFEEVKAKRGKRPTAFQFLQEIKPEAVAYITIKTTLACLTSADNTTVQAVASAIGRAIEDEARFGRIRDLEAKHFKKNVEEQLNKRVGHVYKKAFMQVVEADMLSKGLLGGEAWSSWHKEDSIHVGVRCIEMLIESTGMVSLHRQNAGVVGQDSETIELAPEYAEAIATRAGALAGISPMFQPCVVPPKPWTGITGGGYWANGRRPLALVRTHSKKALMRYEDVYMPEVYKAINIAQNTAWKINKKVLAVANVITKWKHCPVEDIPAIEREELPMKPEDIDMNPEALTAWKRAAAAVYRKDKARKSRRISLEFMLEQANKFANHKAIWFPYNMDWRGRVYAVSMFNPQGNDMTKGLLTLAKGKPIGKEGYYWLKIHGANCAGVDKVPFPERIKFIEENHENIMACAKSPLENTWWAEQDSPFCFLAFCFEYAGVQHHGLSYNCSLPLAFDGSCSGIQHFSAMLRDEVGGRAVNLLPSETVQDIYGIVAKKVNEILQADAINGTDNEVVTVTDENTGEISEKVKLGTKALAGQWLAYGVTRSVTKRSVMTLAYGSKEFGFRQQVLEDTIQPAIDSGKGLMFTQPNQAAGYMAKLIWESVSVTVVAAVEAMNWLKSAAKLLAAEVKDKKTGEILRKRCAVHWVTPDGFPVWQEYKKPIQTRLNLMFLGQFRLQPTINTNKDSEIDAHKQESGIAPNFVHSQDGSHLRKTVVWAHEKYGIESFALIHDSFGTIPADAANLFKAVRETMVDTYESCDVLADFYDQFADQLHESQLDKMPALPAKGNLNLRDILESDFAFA

SMILES	Relative peak area Capped RNA minus G [1] [%]	Relative peak area Correctly capped RNA [1] [%]	Relative peak area Uncapped RNA [1] [%]	Relative peak area Unidentified peaks [1] [%]	Relative peak area Capped RNA minus G [2] [%]	Relative peak area Uncapped RNA [2] [%]	Relative peak area Unidentified peaks [2] [%]	Relative peak area Correctly capped RNA (Table Ex-6, mRNA capped with named cap analog (2.0 mM cap, 0.5 mM GTP), RP-HPLC purified mRNA, 5′ fragment, UV 260 nm) [%]
C[n+]1cn(CCSCP(=O)(O)OP(=O)([O-])OP(=O)(O)OC[C@H]2O[C@@H](n3cnc4c(=O)[nH]c(N)nc43)[C@H](O)[C@@H]2O)c2nc(N)[nH]c(=O)c21 [Phosphonate Variant 10]	23.4	63.0	8.7	4.9	–	–	–	–
C[n+]1cn(C[S+]([O-])CCCP(=O)(O)OP(=O)([O-])OP(=O)(O)OC[C@H]2O[C@@H](n3cnc4c(=O)[nH]c(N)nc43)[C@H](O)[C@@H]2O)c2nc(N)[nH]c(=O)c21 (stereo partly drawn) [Phosphonate Variant 2]	6.3	76.9	15.0	1.8	–	–	–	–
C[n+]1cn(CCS(=O)(=O)CP(=O)(O)OP(=O)([O-])OP(=O)(O)OC[C@H]2O[C@@H](n3cnc4c(=O)[nH]c(N)nc43)[C@H](O)[C@@H]2O)c2nc(N)[nH]c(=O)c21 [Phosphonate Variant 12]	8.6	75.5	12.2	3.7	–	–	–	–
C[n+]1cn(CCCS(=O)(=O)CCP(=O)(O)OP(=O)([O-])OP(=O)(O)OC[C@H]2O[C@@H](n3cnc4c(=O)[nH]c(N)nc43)[C@H](O)[C@@H]2O)c2nc(N)[nH]c(=O)c21 [Phosphonate Variant 9]	4.4	73.4	15.7	6.5	–	–	–	–
C[n+]1cn(CCCOP(=O)(O)OP(=O)([O-])OP(=O)(O)OC[C@H]2O[C@@H](n3cnc4c(=O)[nH]c(N)nc43)[C@H](O)[C@@H]2O)c2nc(N)[nH]c(=O)c21 [Propylene Cap]	21.6	64.7	12.3	1.4	–	–	–	–
C[n+]1cn(C2OC(COP(=O)(O)OP(=O)([O-])OP(=O)(O)OCC3OC(n4cnc5c(=O)[nH]c(N)nc54)C(O)C3O)C(O)C2O)c2nc(N)[nH]c(=O)c21 (stereo not drawn) [mCap, m7G(5′)ppp(5′)G, reference compound]	12.2	63.3	20.3	4.2	8.6	19.8	10.1	61.5
C[n+]1cn(CC[S+]([O-])CCP(=O)(O)OP(=O)([O-])OP(=O)(O)OC[C@H]2O[C@@H](n3cnc4c(=O)[nH]c(N)nc43)[C@H](O)[C@@H]2O)c2nc(N)[nH]c(=O)c21 (stereo partly drawn) [Phosphonate Variant 5]	4.3	77.1	13.1	5.5	–	–	–	–
C[n+]1cn(CCS(=O)(=O)CCP(=O)(O)OP(=O)([O-])OP(=O)(O)OC[C@H]2O[C@@H](n3cnc4c(=O)[nH]c(N)nc43)[C@H](O)[C@@H]2O)c2nc(N)[nH]c(=O)c21 [Phosphonate Variant 6]	4.2	75.5	14.9	5.4	–	–	–	–
